Experimental data as given in patent publication US20160222430A1, “D-ALA-D-ALA-BASED DIPEPTIDES AS TOOLS FOR IMAGING PEPTIDOGLYCAN BIOSYNTHESIS” (INDIANA UNIVERSITY RESEARCH AND TECHNOLOGY CORPORATION, priority 2013, published 2016).
Where two headings read alike, the source gives them in different places. Where a SMILES comes first, the peptide text is derived from it. [ ]: non-standard residue; d: D form.

Experiments:
[1] = test system: C. trachomatis serovar L2 strain 434/Bu; test: DCS Chlamydia trachomatis plaque assay in L2 mouse fibroblast monolayers; assay type: cell-based; conditions: DCS 294 μM
E. coli ΔddlA ΔddlB = assay type: cell-based, Escherichia coli
E. coli wt = assay type: cell-based, Escherichia coli; parameters: Growth rescue (culture density), E. coli wt: key: +++++: highest culture density achieved within a set; ++++: intermediate values, relative fractions of the highest culture density within a set; +++: intermediate values, relative fractions of the highest culture density within a set; ++: intermediate values, relative fractions of the highest culture density within a set; +: intermediate values, relative fractions of the highest culture density within a set; −: no bacterial growth
B. subtilis wt = assay type: cell-based, Bacillus subtilis; parameters: Growth rescue (culture density), B. subtilis wt: key: +++++: highest culture density achieved within a set; ++++: intermediate values, relative fractions of the highest culture density within a set; +++: intermediate values, relative fractions of the highest culture density within a set; ++: intermediate values, relative fractions of the highest culture density within a set; +: intermediate values, relative fractions of the highest culture density within a set; −: no bacterial growth
[2] = test system: C. trachomatis serovar L2 strain 434/Bu; test: Labeling of chlamydial PG in infected L2 cells; assay type: cell-based, Chlamydia trachomatis; conditions: grown for 18 h in the presence of antibiotic (DCS 294 μM or ampicillin 2.8 μM)
E. coli cells = test: PG labeling of E. coli with dipeptide probes, click chemistry and epifluorescence microscopy; assay type: cell-based, Escherichia coli; conditions: 0.5 mM, 45 min; clicked to Alexa Fluor 488 azide
B. subtilis cells = assay type: cell-based, Bacillus subtilis
E. coli = test: FDAA/CDAA labeling of E. coli, fluorescence microscopy; assay type: cell-based, Escherichia coli; conditions: 2%-8% of doubling time
A. tumefaciens = test: Control experiment with fluorescent D-Ala and L-Ala in A. tumefaciens; assay type: cell-based, Agrobacterium tumefaciens
Procedure: Control experiments were carried out in A. tumefaciens, B. subtilis and E. coli with fluorescent D-Ala (D-HCC) and fluorescent L-Ala (L-HCC). […] This observation was true for all strains tested.
For Growth (culture density), B. subtilis wt in this document: key: +++++: highest culture density achieved within a set; ++++: intermediate values, relative fractions of the highest culture density within a set; +++: intermediate values, relative fractions of the highest culture density within a set; ++: intermediate values, relative fractions of the highest culture density within a set; +: intermediate values, relative fractions of the highest culture density within a set; −: no bacterial growth.
For Growth (culture density), E. coli wt in this document: key: +++++: highest culture density achieved within a set; ++++: intermediate values, relative fractions of the highest culture density within a set; +++: intermediate values, relative fractions of the highest culture density within a set; ++: intermediate values, relative fractions of the highest culture density within a set; +: intermediate values, relative fractions of the highest culture density within a set; −: no bacterial growth.
For Growth rescue (culture density), E. coli Δddla, Δddlb in this document: key: +++++: highest culture density achieved within a set; ++++: intermediate values, relative fractions of the highest culture density within a set; +++: intermediate values, relative fractions of the highest culture density within a set; ++: intermediate values, relative fractions of the highest culture density within a set; +: intermediate values, relative fractions of the highest culture density within a set; −: no bacterial growth.

## C[C@@H](N)C(=O)O [D-Ala, D-alanine]
[1]; amino acid to DCS ratio 1:1
  Plaque formation: ++++
[1]; amino acid to DCS ratio 1:10
  Plaque formation: +++

## C[C@@H](N)C(=O)N[C@H](C)C(=O)O [DA-DA, D-alanyl-D-alanine] (H-[dA]-[dA]-OH)
E. coli ΔddlA ΔddlB; MM (M9 + 0.2% glucose) + 25 μM, initial inoculum OD600 = 0.025
  Growth rescue (culture density), E. coli Δddla, Δddlb: ++
E. coli ΔddlA ΔddlB; MM + 25 μM, initial inoculum OD600 = 0.0025
  Growth rescue (culture density), E. coli Δddla, Δddlb: +
E. coli ΔddlA ΔddlB; MM + 200 μM, initial inoculum OD600 = 0.025
  Growth rescue (culture density), E. coli Δddla, Δddlb: +++++
E. coli wt
  Growth rescue (culture density), E. coli wt: ++
B. subtilis wt
  Growth rescue (culture density), B. subtilis wt: ++++
[1]; amino acid to DCS ratio 1:1
  Plaque formation: ++
[1]; amino acid to DCS ratio 10:1
  Plaque formation: +++

## N[C@@H]1CONC1=O [DCS, D-cycloserine]
E. coli wt
  Growth (culture density), E. coli wt: −
B. subtilis wt
  Growth (culture density), B. subtilis wt: −
[1]; no amino acid
  Plaque formation: −
[2]
  Morphology of chlamydial RBs grown with antibiotic: inclusions contained enlarged, aberrant RBs

## C#CN[C@@H](C)C(=O)N[C@@H](C)C(=O)O [ELA-LA, ethynyl-L-alanyl-L-alanine]
E. coli ΔddlA ΔddlB; MM + 0.8 mM, initial inoculum OD600 = 0.025
  Growth rescue (culture density), E. coli Δddla, Δddlb: −
E. coli ΔddlA ΔddlB; MM + DA-DA (25 μM) + 0.80 mM of the analog, initial inoculum OD600 = 0.0025
  Growth rescue (culture density), E. coli Δddla, Δddlb: +
E. coli cells
  PG labeling signal, L-enantiomer control: No labeling was observed
B. subtilis cells
  PG labeling signal, L-enantiomer control: No labeling was observed

## NC(CNC(=O)c1cc2ccc(O)cc2oc1=O)C(=O)O (stereo not drawn) [HADA]
E. coli
  Localization of signal after short labeling times: preferential localization of the signal at the septal plane of pre-divisional cells and in punctate patterns on the lateral walls of elongating cells
A. tumefaciens
  Incorporation into the cell wall: incorporated into the cell wall

## N[C@@H](CNC(=O)c1cc2ccc(O)cc2oc1=O)C(=O)O [HALA]
A. tumefaciens
  Incorporation into the cell wall: only D-HCC was incorporated into the cell wall

## CC1(C)S[C@@H]2[C@H](NC(=O)[C@H](N)c3ccccc3)C(=O)N2[C@H]1C(=O)O [ampicillin]
[2]
  Morphology of chlamydial RBs grown with antibiotic: inclusions contained enlarged, aberrant RBs
